Data from ChEMBL document CHEMBL3808373 (Bioorg Med Chem Lett, 2016).
One block for each molecule: values may come before it. Active and inactive are the calls of the source. The calls are words filed in the database; no cut-off is given here.

Experiments:
[1] = target: T1, Nav1.5 (peak sodium current, use-dependent block) (Homo sapiens, UniProt Q14524); experiment: (§1) Inhibition of 3 Hz stimulated human Nav1.5alpha expressed in HEK293 cells assessed as use dependent block of peak sodium current at 10 uM with 3 compound additions at 60 sec intervals at holding potential -100 mV incubated for 320 sec after third compound addition followed by second period of 3 Hz stimulation by PatchXpress method relative to control; assay type: cell-based; conditions: HEK293 cells expressing human Nav1.5alpha
[2] = target: T2, Sodium channel protein type 5 subunit alpha (Homo sapiens, UniProt Q14524); experiment: (§2) Inhibition of 0.1 Hz stimulated human Nav1.5alpha expressed in HEK293 cells assessed as inhibition of late sodium current with 3 compound additions for 7 to 8 mins at holding potential -120 mV in presence of late sodium current activator tefluthrin/ATX2 measured immediately after third compound addition by PatchXpress method; assay type: cell-based
[3] = Half life in human microsomes; assay type: ADME, Microsome
[4] = Half life in dog microsomes; assay type: ADME, Canis lupus familiaris, Microsome
[5] = target: T2, Sodium channel protein type 5 subunit alpha; conditions: HEK293, human, read-out: INH
Description: Inhibition of 0.1 Hz stimulated human Nav1.5alpha expressed in HEK293 cells assessed as inhibition of late sodium current at 10 uM with 3 compound additions for 7 to 8 mins at holding potential -120 mV in presence of late sodium current activator tefluthrin/ATX2 measured immediately after third compound addition by PatchXpress method relative to control

[6] = Half life in rat microsomes; assay type: ADME, Microsome
[7] = Lipophilicity, log D of compound; assay type: physicochemical; conditions: octanol/water
[8] = target: T3, Sodium channel protein type 1 subunit alpha (Homo sapiens, UniProt P35498); experiment: Inhibition of 10 Hz stimulated Nav1.1 (unknown origin) assessed as inhibition of peak sodium current at 10 uM by automated patch clamp method relative to control
[9] = target: T1, Nav1.5 (peak sodium current, use-dependent block); experiment: as §1, with “at 1” for “at 10”; assay type: cell-based; conditions: HEK293 cells expressing human Nav1.5alpha
[10] = target: T1, Nav1.5 (peak sodium current, use-dependent block); experiment: as §1, with “at 0.3” for “at 10”; assay type: cell-based; conditions: HEK293 cells expressing human Nav1.5alpha
[11] = target: T2, Sodium channel protein type 5 subunit alpha; experiment: as §2, with “sodium current at 300 nM with 3” for “sodium current with 3”, “PatchXpress method relative to control” for “PatchXpress method”; assay type: cell-based
Oryctolagus cuniculus = organism: Oryctolagus cuniculus; experiment: Inhibition of Nav1.5 in isolated rabbit heart assessed as inhibition of ATX2-induced prolongation of mean action potential duration at 10 to 100000 nM relative to control
Heart [12] = experiment: Protection against […]/clofilium-induced ventricular arrhythmias in isolated rabbit heart assessed as torsade des pointes at 14 uM relative to control; assay type: functional, Oryctolagus cuniculus, Cardiac ventricle
[13] = target: T4, Sodium channel protein type 2 subunit alpha (Homo sapiens, UniProt Q99250); experiment: Inhibition of 10 Hz stimulated Nav1.2 (unknown origin) by manual patch clamp method
[14] = target: T3, Sodium channel protein type 1 subunit alpha; experiment: Inhibition of 10 Hz stimulated Nav1.1 (unknown origin) by manual patch clamp method
[15] = target: T4, Sodium channel protein type 2 subunit alpha; experiment: Inhibition of 1 Hz stimulated Nav1.2 (unknown origin) by manual patch clamp method
[16] = target: Voltage-gated inwardly rectifying potassium channel KCNH2 (Homo sapiens, UniProt Q12809); experiment: Inhibition of human ERG
[17] = Ratio of drug level in brain to plasma in rat; assay type: ADME, cell-free; conditions: read-out: BPR
[18] = Ratio of drug level in brain to plasma in dog; assay type: ADME, cell-free, Canis lupus familiaris; conditions: read-out: BPR
[19] = target: T3, Sodium channel protein type 1 subunit alpha; experiment: Inhibition of 1 Hz stimulated Nav1.1 (unknown origin) by manual patch clamp method
[20] = target: T2, Sodium channel protein type 5 subunit alpha; experiment: Inhibition of 3 Hz stimulated Nav1.5 (unknown origin) assessed as inhibition of peak sodium current by manual patch clamp method
[21] = Terminal half life in rat; assay type: ADME, organism-based; conditions: in vivo, read-out: beta t1/2 (converted)
[22] = Plasma protein binding in dog; assay type: ADME, cell-free, Canis lupus familiaris; conditions: read-out: PPB (converted)
[23] = Clearance in cynomolgus monkey microsomes; assay type: ADME, Macaca fascicularis, Microsome
[24] = Plasma protein binding in human; assay type: ADME, cell-free; conditions: read-out: PPB (converted)
[25] = Volume of distribution in cynomolgus monkey; assay type: ADME, organism-based, Macaca fascicularis; conditions: in vivo
[26] = Clearance in cynomolgus monkey; assay type: ADME, organism-based, Macaca fascicularis; conditions: in vivo
Rattus norvegicus = organism: Rattus norvegicus; experiment: Toxicity in rat assessed as liver lesions after 7 days; assay type: organism-based; conditions: in vivo, 168 h
Heart [27] = experiment: Protection against […]/clofilium-induced ventricular arrhythmias in isolated rabbit heart assessed as inhibition of torsade des pointes at 3 uM; assay type: functional, tissue-based; conditions: Oryctolagus cuniculus, Cardiac ventricle
[28] = Volume of distribution in rabbit; assay type: ADME, organism-based, Oryctolagus cuniculus; conditions: in vivo
[29] = Clearance in dog microsomes; assay type: ADME, Canis lupus familiaris, Microsome
[30] = Terminal half life in rabbit; assay type: ADME, organism-based, Oryctolagus cuniculus; conditions: in vivo, read-out: beta t1/2 (converted)
[31] = Volume of distribution in dog; assay type: ADME, organism-based, Canis lupus familiaris; conditions: in vivo
[32] = target: T2, Sodium channel protein type 5 subunit alpha; experiment: as §2, with “sodium current at 1 uM with 3” for “sodium current with 3”, “PatchXpress method relative to control” for “PatchXpress method”; assay type: cell-based
[33] = Oral bioavailability in dog; assay type: ADME, organism-based, Canis lupus familiaris; conditions: in vivo
[34] = Terminal half life in monkey; assay type: ADME, organism-based, Macaca mulatta; conditions: rhesus monkey, in vivo; read-out: beta t1/2 (converted)
[35] = Clearance in rat microsomes; assay type: ADME, Microsome
[36] = Clearance in rabbit; assay type: ADME, organism-based, Oryctolagus cuniculus; conditions: in vivo
[37] = Volume of distribution in rat; assay type: ADME, organism-based; conditions: in vivo
[38] = Inhibition of Nav1.5 in isolated rabbit heart assessed as inhibition of ATX2-induced prolongation of mean action potential duration; conditions: Oryctolagus cuniculus
[39] = target: T2, Sodium channel protein type 5 subunit alpha; experiment: Inhibition of Nav1.5 (unknown origin) assessed as inhibition of late sodium current by manual patch clamp method
[40] = Oral bioavailability in rat; assay type: ADME, organism-based; conditions: in vivo
[41] = Terminal half life in dog; assay type: ADME, organism-based, Canis lupus familiaris; conditions: in vivo, read-out: beta t1/2 (converted)
[42] = Clearance in human microsomes; assay type: ADME, Microsome
[43] = Plasma protein binding in rabbit; assay type: ADME, cell-free, Oryctolagus cuniculus; conditions: read-out: PPB (converted)
[44] = Plasma protein binding in rat; assay type: ADME, cell-free; conditions: read-out: PPB (converted)
[45] = Clearance in dog; assay type: ADME, organism-based, Canis lupus familiaris; conditions: in vivo
[46] = target: T2, Sodium channel protein type 5 subunit alpha; experiment: Inhibition of 1 Hz stimulated Nav1.5 (unknown origin) assessed as inhibition of peak sodium current by manual patch clamp method
[47] = Clearance in rat; assay type: ADME, organism-based; conditions: in vivo

T4 sequence (Q99250 whole entry): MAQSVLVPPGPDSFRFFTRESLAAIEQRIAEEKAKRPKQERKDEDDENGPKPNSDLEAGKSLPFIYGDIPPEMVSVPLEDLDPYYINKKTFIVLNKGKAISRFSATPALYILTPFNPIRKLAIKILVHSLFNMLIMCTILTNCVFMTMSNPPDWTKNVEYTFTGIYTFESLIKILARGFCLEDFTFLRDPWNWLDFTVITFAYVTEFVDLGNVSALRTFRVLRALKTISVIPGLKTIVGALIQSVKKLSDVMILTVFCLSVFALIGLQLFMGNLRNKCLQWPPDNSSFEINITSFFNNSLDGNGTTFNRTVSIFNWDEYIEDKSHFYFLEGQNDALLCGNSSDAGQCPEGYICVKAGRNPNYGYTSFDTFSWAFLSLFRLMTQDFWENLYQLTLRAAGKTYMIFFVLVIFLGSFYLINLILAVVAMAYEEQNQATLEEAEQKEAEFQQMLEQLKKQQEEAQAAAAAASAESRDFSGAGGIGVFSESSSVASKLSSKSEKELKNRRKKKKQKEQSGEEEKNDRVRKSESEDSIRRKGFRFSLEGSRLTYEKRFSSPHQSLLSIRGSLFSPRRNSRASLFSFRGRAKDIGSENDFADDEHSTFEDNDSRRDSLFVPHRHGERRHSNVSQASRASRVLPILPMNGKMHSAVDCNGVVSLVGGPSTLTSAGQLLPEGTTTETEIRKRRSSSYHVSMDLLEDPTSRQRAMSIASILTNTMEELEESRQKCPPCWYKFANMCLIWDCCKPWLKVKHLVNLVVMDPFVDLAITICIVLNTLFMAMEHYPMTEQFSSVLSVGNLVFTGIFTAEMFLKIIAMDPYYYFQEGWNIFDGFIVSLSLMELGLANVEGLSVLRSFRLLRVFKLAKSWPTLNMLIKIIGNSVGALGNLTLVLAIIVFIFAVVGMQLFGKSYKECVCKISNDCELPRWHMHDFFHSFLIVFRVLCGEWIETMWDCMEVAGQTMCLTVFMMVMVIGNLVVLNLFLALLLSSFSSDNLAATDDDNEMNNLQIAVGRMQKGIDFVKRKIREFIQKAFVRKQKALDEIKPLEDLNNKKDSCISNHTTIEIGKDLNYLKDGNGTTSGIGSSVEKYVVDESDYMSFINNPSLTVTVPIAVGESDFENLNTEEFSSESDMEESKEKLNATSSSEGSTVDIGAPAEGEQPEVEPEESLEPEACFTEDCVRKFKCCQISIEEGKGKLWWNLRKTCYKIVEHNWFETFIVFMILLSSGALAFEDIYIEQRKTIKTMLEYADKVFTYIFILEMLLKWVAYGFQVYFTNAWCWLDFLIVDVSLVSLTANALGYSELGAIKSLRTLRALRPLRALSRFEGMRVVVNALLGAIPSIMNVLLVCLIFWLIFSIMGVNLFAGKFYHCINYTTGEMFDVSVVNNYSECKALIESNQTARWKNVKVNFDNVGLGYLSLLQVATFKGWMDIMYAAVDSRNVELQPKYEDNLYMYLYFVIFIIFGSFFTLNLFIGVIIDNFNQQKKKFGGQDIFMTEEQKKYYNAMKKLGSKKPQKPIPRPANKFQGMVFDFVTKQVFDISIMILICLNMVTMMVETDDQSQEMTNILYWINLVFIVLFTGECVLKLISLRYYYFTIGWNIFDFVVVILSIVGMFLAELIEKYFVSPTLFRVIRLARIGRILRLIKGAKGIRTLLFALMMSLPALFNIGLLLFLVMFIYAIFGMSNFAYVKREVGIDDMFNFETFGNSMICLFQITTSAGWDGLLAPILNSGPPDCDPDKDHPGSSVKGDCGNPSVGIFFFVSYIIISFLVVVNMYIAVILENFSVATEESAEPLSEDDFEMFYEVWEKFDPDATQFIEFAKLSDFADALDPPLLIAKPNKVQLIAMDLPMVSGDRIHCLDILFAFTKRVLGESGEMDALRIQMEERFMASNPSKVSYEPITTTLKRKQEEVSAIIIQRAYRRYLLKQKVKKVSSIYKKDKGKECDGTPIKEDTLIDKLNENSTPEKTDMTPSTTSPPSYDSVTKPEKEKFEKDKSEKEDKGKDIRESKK
T1 sequence (Q14524 whole entry): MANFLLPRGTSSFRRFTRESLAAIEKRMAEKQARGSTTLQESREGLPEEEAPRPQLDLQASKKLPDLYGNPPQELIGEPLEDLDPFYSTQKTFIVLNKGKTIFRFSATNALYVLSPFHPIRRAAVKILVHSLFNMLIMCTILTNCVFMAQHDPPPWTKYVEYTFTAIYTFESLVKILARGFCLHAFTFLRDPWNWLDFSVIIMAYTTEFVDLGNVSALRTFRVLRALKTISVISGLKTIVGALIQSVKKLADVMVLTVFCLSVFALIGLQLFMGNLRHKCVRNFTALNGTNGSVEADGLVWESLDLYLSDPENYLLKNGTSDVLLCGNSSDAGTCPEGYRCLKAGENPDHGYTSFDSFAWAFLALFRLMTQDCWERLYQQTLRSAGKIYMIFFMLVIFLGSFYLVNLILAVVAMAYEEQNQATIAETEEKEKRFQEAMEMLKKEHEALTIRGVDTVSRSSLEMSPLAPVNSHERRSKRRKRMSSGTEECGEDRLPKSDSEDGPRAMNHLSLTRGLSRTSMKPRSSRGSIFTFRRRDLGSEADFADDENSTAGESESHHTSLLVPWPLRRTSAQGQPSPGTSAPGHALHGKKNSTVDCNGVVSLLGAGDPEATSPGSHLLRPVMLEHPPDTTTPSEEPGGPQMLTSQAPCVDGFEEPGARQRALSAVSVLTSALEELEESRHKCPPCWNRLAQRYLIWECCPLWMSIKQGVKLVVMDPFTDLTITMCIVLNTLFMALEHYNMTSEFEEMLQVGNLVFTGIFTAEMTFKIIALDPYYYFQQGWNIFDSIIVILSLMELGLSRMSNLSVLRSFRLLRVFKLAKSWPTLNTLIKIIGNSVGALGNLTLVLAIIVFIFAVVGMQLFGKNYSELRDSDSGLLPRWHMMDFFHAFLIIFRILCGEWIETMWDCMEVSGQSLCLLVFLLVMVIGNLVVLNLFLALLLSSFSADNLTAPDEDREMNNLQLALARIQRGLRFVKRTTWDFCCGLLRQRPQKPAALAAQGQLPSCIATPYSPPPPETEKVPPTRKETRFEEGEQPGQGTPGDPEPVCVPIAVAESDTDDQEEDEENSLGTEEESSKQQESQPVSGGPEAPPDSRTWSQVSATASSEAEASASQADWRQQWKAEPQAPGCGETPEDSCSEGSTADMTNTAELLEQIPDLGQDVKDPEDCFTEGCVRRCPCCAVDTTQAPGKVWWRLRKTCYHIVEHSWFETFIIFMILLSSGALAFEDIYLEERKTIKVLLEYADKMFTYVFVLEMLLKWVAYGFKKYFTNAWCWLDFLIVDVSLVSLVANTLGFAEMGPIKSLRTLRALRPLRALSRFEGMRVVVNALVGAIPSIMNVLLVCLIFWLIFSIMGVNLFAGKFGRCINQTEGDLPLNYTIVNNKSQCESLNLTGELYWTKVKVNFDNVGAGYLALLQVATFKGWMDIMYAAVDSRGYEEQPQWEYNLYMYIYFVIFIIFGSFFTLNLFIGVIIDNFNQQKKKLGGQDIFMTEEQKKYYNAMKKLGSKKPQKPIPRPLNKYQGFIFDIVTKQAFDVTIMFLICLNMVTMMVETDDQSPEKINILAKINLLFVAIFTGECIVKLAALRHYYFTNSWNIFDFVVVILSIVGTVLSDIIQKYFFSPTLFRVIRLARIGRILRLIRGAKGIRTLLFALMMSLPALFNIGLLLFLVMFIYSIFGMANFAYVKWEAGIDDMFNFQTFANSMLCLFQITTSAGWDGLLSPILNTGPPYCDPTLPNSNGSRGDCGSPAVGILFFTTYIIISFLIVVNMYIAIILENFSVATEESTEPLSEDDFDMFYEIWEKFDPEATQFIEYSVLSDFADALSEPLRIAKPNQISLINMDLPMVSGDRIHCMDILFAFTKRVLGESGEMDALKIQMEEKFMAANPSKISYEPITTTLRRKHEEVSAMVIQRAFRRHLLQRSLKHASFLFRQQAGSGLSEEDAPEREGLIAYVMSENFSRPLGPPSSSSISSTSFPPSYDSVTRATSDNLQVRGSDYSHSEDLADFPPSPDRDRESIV
Sequence of Voltage-gated inwardly rectifying potassium channel KCNH2 (Q12809 whole entry): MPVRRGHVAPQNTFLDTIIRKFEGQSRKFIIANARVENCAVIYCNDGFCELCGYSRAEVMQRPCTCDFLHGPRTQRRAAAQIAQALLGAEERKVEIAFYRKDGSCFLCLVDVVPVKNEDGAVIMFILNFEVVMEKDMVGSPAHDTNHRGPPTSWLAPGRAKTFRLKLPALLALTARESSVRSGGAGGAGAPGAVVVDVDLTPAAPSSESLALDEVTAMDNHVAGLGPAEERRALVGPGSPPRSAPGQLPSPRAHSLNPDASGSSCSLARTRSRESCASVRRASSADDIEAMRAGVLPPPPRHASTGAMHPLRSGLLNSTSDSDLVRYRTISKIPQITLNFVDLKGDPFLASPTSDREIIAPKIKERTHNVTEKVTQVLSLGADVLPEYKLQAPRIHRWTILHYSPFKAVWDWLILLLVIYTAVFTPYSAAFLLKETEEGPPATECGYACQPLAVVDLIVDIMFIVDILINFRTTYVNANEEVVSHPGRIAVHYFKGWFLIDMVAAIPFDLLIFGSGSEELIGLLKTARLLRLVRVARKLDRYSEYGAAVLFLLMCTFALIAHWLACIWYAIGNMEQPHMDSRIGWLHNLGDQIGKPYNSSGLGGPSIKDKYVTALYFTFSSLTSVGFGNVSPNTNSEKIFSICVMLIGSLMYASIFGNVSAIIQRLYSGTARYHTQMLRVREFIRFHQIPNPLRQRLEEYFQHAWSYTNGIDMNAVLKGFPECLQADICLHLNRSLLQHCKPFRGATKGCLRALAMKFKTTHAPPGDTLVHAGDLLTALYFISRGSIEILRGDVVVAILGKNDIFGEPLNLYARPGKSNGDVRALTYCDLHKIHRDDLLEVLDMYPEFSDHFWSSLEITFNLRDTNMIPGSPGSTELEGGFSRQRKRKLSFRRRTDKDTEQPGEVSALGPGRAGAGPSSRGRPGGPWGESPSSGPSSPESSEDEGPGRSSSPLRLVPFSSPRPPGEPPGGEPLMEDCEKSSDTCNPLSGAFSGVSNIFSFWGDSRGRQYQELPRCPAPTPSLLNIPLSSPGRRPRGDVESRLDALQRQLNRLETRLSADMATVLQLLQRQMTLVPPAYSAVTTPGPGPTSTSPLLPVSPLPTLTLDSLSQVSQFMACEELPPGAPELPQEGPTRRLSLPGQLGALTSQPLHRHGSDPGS

Compound: Cc1noc(Cn2nc3ccc(-c4ccc(Oc5ccc(Cl)cc5)cc4)cn3c2=O)n1
logD [7]: 3.4
IC50 [2]: 134 µM
half-life [3]: 45 min
inhibition [8]: 42%
half-life [4]: 94 min
inhibition at 10 µM [5]: ≥ 70%
inhibition at 320 s, 1 µM [9]: 47%
half-life [6]: 34 min

Compound: Cc1coc(Cn2nc3ccc(-c4ccc(OC(F)(F)F)cc4)cn3c2=O)n1
IC50 [2]: 2.5 µM
half-life [3]: 144 min
inhibition [8]: 28%
half-life [4]: 160 min
inhibition at 10 µM [5]: ≥ 70%
half-life [6]: 41 min

Compound: Cc1cc(Cn2nc3ccc(-c4ccc(OC(F)(F)F)cc4)cn3c2=O)on1
IC50 [2]: > 10 µM

Compound: Cc1nc(Cn2nc3ccc(-c4ccc(OC(F)(F)F)cc4)cn3c2=O)no1
inhibition at 320 s, 10 µM [1]: 10%
IC50 [2]: 3.3 µM
half-life [3]: 395 min
inhibition [8]: 27%
inhibition at 10 µM [5]: ≥ 70%
half-life [6]: 363 min

Compound: Cn1cnc(Cn2nc3ccc(-c4ccc(OC(F)(F)F)cc4)cn3c2=O)n1
IC50 [2]: > 10 µM

Compound: O=c1n(Cc2nnc(C3CC3)o2)nc2ccc(-c3ccc(Oc4ccc(F)cc4)cc3)cn12
IC50 [2]: 740 µM
half-life [3]: 395 min
inhibition [8]: 56%
half-life [4]: 287 min
inhibition at 10 µM [5]: ≥ 70%
inhibition at 320 s, 1 µM [9]: 69%
half-life [6]: 395 min

Compound: Cc1nc(Cn2nc3ccc(-c4ccc(Oc5ccc(Cl)cc5)cc4)cn3c2=O)no1
inhibition at 0.3 µM [11]: 60%
half-life [3]: 395 min
inhibition [8]: 79%
half-life [4]: 354 min
inhibition at 10 µM [5]: ≥ 70%
inhibition at 320 s, 1 µM [9]: 40%
half-life [6]: 390 min

Compound: CCc1noc(Cn2nc3ccc(-c4ccc(OC(F)(F)F)cc4)cn3c2=O)n1
IC50 [2]: 4 µM
inhibition at 10 µM [5]: ≥ 70%

Compound: COc1ccccc1OCC(O)CN1CCN(CC(=O)Nc2c(C)cccc2C)CC1 (centres undefined) [RANOLAZINE]
inhibition (Oryctolagus cuniculus): 60%
Activity (Heart [12]): 40%

Compound: O=c1n(Cc2nc(-c3c(Cl)cccc3Cl)no2)nc2ccc(-c3ccc(OC(F)(F)F)cc3)cn12
IC50 [2]: 3.5 µM
inhibition at 10 µM [5]: ≥ 70%

Compound: Cc1noc(Cn2nc3ccc(-c4ccc(OC(F)(F)F)cc4)cn3c2=O)n1
IC50 [13]: 8.1 µM
IC50 [20]: > 10 µM
inhibition at 320 s, 10 µM [1]: 10%
half-life [21]: 126 min
fraction unbound [22]: 0.057
IC50 [2]: 1.9 µM
IC50 [14]: 4800 nM
CL [23]: 0.4 L/h/kg
fraction unbound [24]: 0.05
Vd [25]: 2.29 L/kg
clearance [26]: 7.97 mL/min/kg
IC50 [15]: 4200 nM
Activity (Rattus norvegicus): Toxic
IC50 [16]: > 10 µM
inhibition (Heart [27]): Active
Vd [28]: 2.24 L/kg
CL [29]: 0.26 L/h/kg
half-life [30]: 289 min
half-life [3]: 308 min
Vd [31]: 4.23 L/kg
inhibition at 1 µM [32]: 31%
inhibition [8]: 8%
bioavailability [33]: 72.8%
half-life [34]: 287 min
CL [35]: 0.52 L/h/kg
inhibition (Oryctolagus cuniculus): 90%
clearance [36]: 7.03 mL/min/kg
Kp [17]: > 20
Vd [37]: 1.95 L/kg
IC50 [38]: 1200 nM
IC50 [39]: 1330 nM
bioavailability [40]: 44.3%
half-life [4]: 236 min
half-life [41]: 1040 min
Kp [18]: > 20
IC50 [19]: > 10 µM
CL [42]: 0.21 L/h/kg
fraction unbound [43]: 0.043
inhibition at 10 µM [5]: ≥ 70%
fraction unbound [44]: 0.046
clearance [45]: 7.98 mL/min/kg
IC50 [46]: > 10 µM
half-life [6]: 198 min
clearance [47]: 12 mL/min/kg

Second part, led by results:

half-life [3]: 390 min
half-life [4]: 190 min
half-life [6]: 89 min
Compound: O=c1[nH]nc2ccc(-c3ccc(OC(F)(F)F)cc3)cn12
inhibition at 320 s, 10 µM [1]: 24%
IC50 [2]: 1.9 µM
inhibition at 10 µM [5]: ≥ 70%

logD [7]: 3
half-life [3]: 127 min
half-life [4]: 217 min
half-life [6]: 85 min
Compound: Cc1noc(Cn2nc3ccc(-c4ccc(Oc5ccc(F)cc5)cc4)cn3c2=O)n1
IC50 [2]: 215 µM
inhibition at 320 s, 0.3 µM [10]: 33%
inhibition at 10 µM [5]: ≥ 70%

half-life [3]: 395 min
inhibition [8]: 40%
half-life [4]: 273 min
half-life [6]: 43 min
Compound: O=c1[nH]nc2ccc(-c3ccc(Oc4ccc(F)cc4)cc3)cn12
IC50 [2]: 1900 µM
inhibition at 10 µM [5]: ≥ 70%
inhibition at 320 s, 1 µM [9]: 28%

logD [7]: 2.8
half-life [3]: 81 min
inhibition [8]: 56%
half-life [4]: 181 min
half-life [6]: 32 min
Compound: O=c1n(Cc2noc(CO)n2)nc2ccc(-c3ccc(Oc4ccc(F)cc4)cc3)cn12
inhibition at 320 s, 10 µM [1]: 21%
IC50 [2]: 981 µM
inhibition at 10 µM [5]: ≥ 70%

half-life [3]: 39 min
half-life [4]: 108 min
half-life [6]: 39 min
Compound: O=c1n(Cc2nc(C3CC3)co2)nc2ccc(-c3ccc(OC(F)(F)F)cc3)cn12
IC50 [2]: 3 µM
inhibition at 10 µM [5]: ≥ 70%

half-life [3]: 207 min
inhibition [8]: 65%
half-life [4]: 167 min
half-life [6]: 145 min
Compound: Cc1nc(Cn2nc3ccc(-c4ccc(Oc5ccc(F)cc5)cc4)cn3c2=O)no1
IC50 [2]: 541 µM
inhibition at 10 µM [5]: ≥ 70%
inhibition at 320 s, 1 µM [9]: 46%

half-life [3]: 288 min
inhibition [8]: 44%
half-life [4]: 228 min
half-life [6]: 24 min
Compound: Cc1cnc(Cn2nc3ccc(-c4ccc(OC(F)(F)F)cc4)cn3c2=O)o1
IC50 [2]: 2.5 µM
inhibition at 10 µM [5]: ≥ 70%

IC50 [13]: 7.9 µM
IC50 [14]: 400 nM
IC50 [15]: 400 nM
Kp [17]: 5
Kp [18]: 3
IC50 [19]: > 10 µM
Compound: FC(F)(F)Oc1ccc(-c2ccc3nnc(C(F)(F)F)n3c2)cc1
IC50 [16]: > 10 µM
